# Columns and labels:
# Assay type in all cases: binding
# [1] = biological target: T1, wild type K-Ras (Homo sapiens, UniProt P01116); assay: Covalent modification of recombinant wild-type K-Ras by whole-protein mass spectrometry; settings: 24-h incubation, 100 μM compound, 23° C., pH 7.5
# T1 construct: human K-Ras (wildtype, aa 1-169); 6xHis tag + TEV cleavage site (N, cleaved yes); made in house; host or cells: E. coli BL21(DE3)
# [2] = biological target: K-Ras(G12S) (Homo sapiens, UniProt P01116, G12S); assay: Covalent modification of recombinant K-Ras(G12S) by whole-protein mass spectrometry; set-up: human K-Ras (G12S, aa 1-169); 6xHis tag + TEV cleavage site (N, cleaved yes); made in house; host or cells: E. coli BL21(DE3); settings: 23° C.
# Outline: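 Recombinant K-Ras diluted to 400 nM or 1 μM in 20 mM HEPES pH 7.5, 150 mM NaCl, 1 mM MgCl2 and incubated with compound added from 100× DMSO stock. Modification extent measured by electrospray whole-protein mass spectrometry; kinetics used 1:1 mixing with 400 nM protein and injection time stamps for elapsed time.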
# [3] = biological target: T1, wild type K-Ras; assay: Covalent modification of test protein after incubation with compound; settings: 24-h incubation with 100 μM compound at 23° C. at pH 7.5
smiles,measurement,setting,value
O=C1O[C@H]2CN(c3nc(OCC45CCCN4CCC5)nc4c(F)c(-c5cccc6cccc(Cl)c56)ncc34)CC[C@@H]12 [5′],% covalent modification of wild type K-Ras,[1],0%
same,covalent reaction with K-Ras(G12S)·GDP,[2]; 10 μM compound,enhanced reaction
same,time to 100% modification of K-Ras(G12S)·GDP,[2]; 10 μM,< 10 min
same,% covalent modification of K-Ras G12S,"[2]; 24-h incubation, 100 μM compound, pH 7.5",100%
same,% covalent modification of wild type K-Ras,[3],0%

# — patent US20250059187A1, “COVALENTLY BINDING INHIBITORS OF G12S, G12D AND/OR G12E MUTANTS OF K-RAS GTPASE” (The Regents of the University of California, priority 2021, published 2025)
